“Also recorded” adds a separate entry of the source.
What was measured:
isolated rat heart = conditions: heart perfused with VIP before ischaemia and reperfusion; cited from earlier work
SHR and WKY rats = assay: Preliminary four-week VIP infusion in rat models of myocardial fibrosis; type: in vivo; conditions: VIP 7.2 nmol/kg/day via Alzet mini pump for four weeks, compared to control groups
From the text: Further preliminary experiments have been conducted on a number of animal models, which encompass a range of fibrous tissue replacement, varying from mild to moderate to severe. The experiments on the animal models encompassed a variety of aetiologies (alone and in combination) and a range of levels of induced fibrosis. For these experiments two types of rats were used, spontaneously hypertensive rats (SHR) and normotensive control Wistar-Kyoto rats (WKY). The WKY rats were given: 1) low salt diet, 2) high salt diet, or 3) L-NAME (ω-monomethyl-nitro-L-arginine; 10 mg/kg/day) plus high salt diet. The SHR rats were given low or high salt diets. The effect of VIP infusion in diabetic heart disease was also studied in the WKY rate with streptozotocin induced diabetes.
In each treatment group, rats were randomised to VIP (SEQ ID No. 1) or vehicle infusion (n=24 in each group) for four weeks. VIP was administered via Alzet mini pump at a rate of 7.2 nmol/kg/day.
After four weeks, the rats were anaesthetised and the hearts were harvested. Myocardial VIP concentrations and myocardial fibrosis were quantitated.

[1] = system: WKY rat fed a high salt diet and given L-NAME; assay: VIP infusion in model of myocardial fibrosis: high salt diet plus L-NAME; type: in vivo
Method: (§1) Three animal models of myocardial fibrosis were used (animals obtained from Australian Animal Resources, Perth, Western Australia, Australia) • i) WKY rat fed a high salt diet • ii) WKY rat fed a high salt diet and given L-NAME (ω-monomethyl-nitro-L-arginine, Sigma Chemical Co.) 10 mg/kg/day in the drinking water • iii) WKY rats with diabetes induced by streptozotocin injection 60 mg/kg
(§2) In each model the rats were randomised to VIP (H-[…]NH2, (SEQ ID No. 1) obtained from Auspep, Australia) or vehicle control (Haemaccel, Aventis) infusion for 4 weeks via Alzet minipump (n=6-8 each experimental group). The dose of VIP was 5 pmol/kg/min.
(§3) In models i) and ii) 14 week old WKY rats were commenced on high salt diet or high salt diet plus L-NAME. They underwent operative insertion of an Alzet minipump for infusion of VIP or vehicle. After 4 weeks the rats were anaesthetised and the hearts harvested. Myocardial VIP and myocardial fibrosis were quantitated.
(§4) Myocardial VIP concentrations and myocardial fibrosis were quantitated.
(§5) VIP was measured by radioimmunoassay in known manner (see Davis R. E., Shelley S., Macdonald G. J. & Duggan K. A. (1992) The effects of a high sodium diet on the metabolism and secretion of vasoactive intestinal peptide in the rabbit. J. Physiol. 451:17-23. Duggan K. A., Ye V. Z. C., Jones D. M. Davis R. E. & Macdonald G. J. (1995) Effects of Endopeptidase 24.11 blockade on plasma and tissue concentrations of vasoactive intestinal peptide Clin. Sci. 89:267-271). […]

normal heart = conditions: cited from earlier work
[2] = system: WKY rats with diabetes induced by streptozotocin injection; assay: VIP infusion in model of myocardial fibrosis: streptozotocin diabetes; type: in vivo, rat; conditions: VIP 5 pmol/kg/min for 4 weeks after 8 weeks of diabetes; FIG. 6
Method: as §1, §2
In model iii) rats were injected with streptozotocin 60 mg/kg at 14 weeks of age. After 8 weeks the diabetic rats were randomised to VIP infusion (5 pmol/kg/min) (SEQ ID No. 1) or no treatment. VIP was administered as above. […]
as §4, §5

[3] = system: WKY rat fed a high salt diet; assay: VIP infusion in model of myocardial fibrosis: high salt diet; type: in vivo
Method: as §1, §2, §3, §4, §5

WKY rats = assay: Acute VIP infusion, uptake of VIP by the myocardium; type: in vivo, rat
Method: In preliminary studies a series of acute infusion experiments have been conducted in animal models.
Fourteen week old WKY rats were randomised to low salt diet (0.008%), intermediate salt diet (2.2%), high salt diet (4.4%) or high salt diet plus L-NAME (10 mg/kg/day) in the drinking water for 4 weeks (n=16 rats per group). On the day of the experiment the rats were anaesthetised and venous and arterial cannulae inserted. After a one hour rest equilibration period the rats were randomised to vehicle control (Haemaccell, Aventis) or VIP (10 pmol/kg/min) infusion (SEQ ID No. 1) for one hour at an infusion rate of 0.017 ml/min. The hearts were then harvested, myocardial VIP concentrations were measured and myocardial fibrosis quantitated.
The difference between the mean myocardial VIP concentrations after VIP or control infusion is a measure of VIP uptake by the heart.
as §5

[4] = system: isolated trabeculae from human hearts; conditions: atria and ventricles of hearts from previously healthy individuals; cited from earlier work
[5] = system: WKY rats on high salt diet; assay: Effect of VIP fragments on myocardial fibrosis; type: in vivo, rat; conditions: for degree of myocardial fibrosis: 5 pmol/kg/min for 4 weeks via Alzet minipump, compared with vehicle control, Masson Trichrome sections; for effectiveness on myocardial fibrosis relative to VIP: all peptides 5 pmol/kg/min for 4 weeks, FIGS. 8 to 10
From the text: To determine whether smaller VIP related peptides had any of the biological activities of the complete VIP molecule, particularly in reducing myocardial fibrosis, the degree of myocardial fibrosis after treatment with VIP(1-12) (SEQ ID No. 2) at 5 pmol/kg/min and VIP (6-28) (SEQ ID No. 3) at 5 pmol/kg/min for 4 weeks via Alzet minipump was compared with the complete VIP (5 pmol/kg/min) (SEQ ID No. 1) and vehicle control. The VIP fragments were purchased from Auspep (Melbourne, Australia).
Briefly, 14 week old WKY rats were commenced on high salt diet as described earlier. They underwent operative insertion of an Alzet minipump for infusion of VIP peptide or vehicle. After 4 weeks the rats were anaesthetised, the hearts harvested and myocardial fibrosis quantitated on Masson Trichrome sections using Image Pro Plus Version 5 (Cybernetics). […] FIGS. 8 to 10 show the results of these studies.

| Compound | myocardial function (left ventricular functions, coronary flow, tissue injury) (isolated rat heart) | myocardial fibrosis index (SHR and WKY rats) | regression of existing myocardial fibrosis ([1]; VIP 5 pmol/kg/min 4 weeks, compared with untreated 14 week old rats, FIG. 5) | myocardial fibrosis index ([1]; VIP 5 pmol/kg/min for 4 weeks via Alzet minipump vs vehicle control, L-NAME 10 mg/kg/day, FIG. 3) | myocardial content of VIP ([1]; after four week intravenous infusion of VIP or vehicle control, FIG. 7B) | uptake of injected VIP by the heart (normal heart) | regression of existing myocardial fibrosis [2] | regression of existing myocardial fibrosis ([3]; VIP 5 pmol/kg/min 4 weeks, compared with untreated 14 week old rats, FIG. 4) | myocardial fibrosis index ([3]; VIP 5 pmol/kg/min for 4 weeks via Alzet minipump vs vehicle control, FIG. 2) | myocardial content of VIP ([3]; after four week intravenous infusion of VIP or vehicle control, FIG. 7A) | difference between mean myocardial VIP concentrations after VIP or control infusion (VIP uptake by the heart) (WKY rats; VIP 10 pmol/kg/min for one hour, low, intermediate, high salt diet or high salt diet plus L-NAME, FIG. 1) | uptake of VIP by the heart from the plasma (WKY rats; acute infusion experiments in animal models with differing levels of fibrosis) | ionotropic effect [4] | degree of myocardial fibrosis [5] | effectiveness on myocardial fibrosis relative to VIP [5] |
| --- | --- | --- | --- | --- | --- | --- | --- | --- | --- | --- | --- | --- | --- | --- | --- |
| CC[C@H](C)[C@H](NC(=O)[C@H](CO)NC(=O)[C@H](CC(N)=O)NC(=O)[C@H](CC(C)C)NC(=O)[C@H](Cc1ccc(O)cc1)NC(=O)[C@H](CCCCN)NC(=O)[C@H](CCCCN)NC(=O)[C@@H](NC(=O)[C@H](C)NC(=O)[C@H](CCSC)NC(=O)[C@H](CCC(N)=O)NC(=O)[C@H](CCCCN)NC(=O)[C@H](CCCNC(=N)N)NC(=O)[C@H](CC(C)C)NC(=O)[C@H](CCCNC(=N)N)NC(=O)[C@@H](NC(=O)[C@H](Cc1ccc(O)cc1)NC(=O)[C@H](CC(N)=O)NC(=O)[C@H](CC(=O)O)NC(=O)[C@@H](NC(=O)[C@H](Cc1ccccc1)NC(=O)[C@@H](NC(=O)[C@H](C)NC(=O)[C@H](CC(=O)O)NC(=O)[C@H](CO)NC(=O)[C@@H](N)Cc1c[nH]cn1)C(C)C)[C@@H](C)O)[C@@H](C)O)C(C)C)C(=O)N[C@@H](CC(C)C)C(=O)N[C@@H](CC(N)=O)C(N)=O [VIP] | significant improvement of myocardial function | significantly lower | regression of myocardial fibrosis | significantly lower | clear association between the degree of fibrosis and uptake of exogenous VIP | not taken up by the normal heart | regression of myocardial fibrosis | regression of myocardial fibrosis | significantly lower | clear association between the degree of fibrosis and uptake of exogenous VIP | As fibrosis worsens the amount of VIP taken up by the heart increases; also recorded: increase as the degree of fibrosis increased | more avid with increasing degrees of fibrosis; also recorded: the higher the level of fibrosis, the greater the uptake of VIP by the heart | direct positive ionotropic effect |  |  |
| VIP(1-12): active fragment of VIP, residues 1-12, purchased from Auspep (HSDAVFTDNYTR; listed as Homo sapiens) |  |  |  |  |  |  |  |  |  |  |  |  |  | decreased the degree of myocardial fibrosis | approximately ⅓ |
| VIP(6-28): active fragment of VIP, residues 6-28, purchased from Auspep (FTDNYTRLRKQMAVKKYLNSILN; listed as Homo sapiens) |  |  |  |  |  |  |  |  |  |  |  |  |  | decreased the degree of myocardial fibrosis | as effective as VIP |
